Results from patent US11820766B2, “Monoacylglycerol lipase modulators” (Janssen Pharmaceutica NV, priority 2018, dated 2023).
Counter-ions that a name gives are not always drawn.

Each compound was assayed against T1, human MGL from HeLa cells (Homo sapiens, UniProt Q99685) (assay: In vitro MGL activity assay: [glycerol-1,3-3H]-oleyl glycerol cleavage by MGL from HeLa cells). Conditions: 300 nM [Glycerol-1,3-3H]-oleyl glycerol, one hour.
T1 construct: combining endogenously expressed MGL from HeLa cells with test compounds; endogenous in cells; host or cells: HeLa cells / cell homogenates
T1 sequence (Q99685 1-303): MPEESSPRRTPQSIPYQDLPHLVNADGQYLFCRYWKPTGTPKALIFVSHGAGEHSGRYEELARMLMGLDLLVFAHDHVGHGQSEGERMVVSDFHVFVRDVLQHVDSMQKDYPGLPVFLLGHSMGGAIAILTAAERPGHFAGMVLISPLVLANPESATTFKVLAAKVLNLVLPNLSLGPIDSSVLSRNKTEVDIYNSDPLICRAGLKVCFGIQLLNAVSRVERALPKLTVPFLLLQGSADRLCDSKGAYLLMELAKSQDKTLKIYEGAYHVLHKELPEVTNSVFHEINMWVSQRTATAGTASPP
Format: biochemical
Description: MGL is the predominant hydrolase in HeLa cells/cell homogenates.

Question: For C[C@H]1c2nn(C)c(-c3cc(F)c(F)c(F)c3)c2CCN1C(=O)c1c[nH]c2c(F)cccc12 [Example 359, [(7S)-2,7-Dimethyl-3-(3,4,5-trifluorophenyl)-5,7-dihydro-4H-pyrazolo[3,4-c]pyridin-6-yl]-(7-fluoro-1H-indol-3-yl)methanone], which IC50 is on record?
Answer: 0.031 µM

Question: C[C@H]1c2nn(C)c(-c3cc(F)c(F)c(F)c3)c2CCN1C(=O)c1cccc2c1OCC(=O)N2C [Example 591, [(7S)-2,7-8-[(7S)-2,7-Dimethyl-3-(3,4,5-trifluorophenyl)-5,7-dihydro-4H-pyrazolo[3,4-c]pyridine-6-carbonyl]-4-methyl-1,4-benzoxazin-3-one.TFA salt] was tested. Which IC50 did it give?
Answer: 0.00418 µM

Question: Cc1nc2c(F)cc(F)cn2c1C(=O)N1CCc2c(nn(C)c2-c2cc(F)c(F)c(F)c2)[C@@H]1C [Example 410, (6,8-Difluoro-2-methyl-imidazo[1,2-a]pyridin-3-yl)-[(7S)-2,7-dimethyl-3-(3,4,5-trifluorophenyl)-5,7-dihydro-4H-pyrazolo[3,4-c]pyridin-6-yl]methanone] was tested. Which IC50 did it give?
Answer: 0.173 µM

Question: Which IC50 does the source give for Cc1cc2nc(C)c(C(=O)N3CCc4c(nn(C)c4-c4cc(F)c(F)c(F)c4)[C@@H]3C)n2cc1F [Example 409, [(7S)-2,7-Dimethyl-3-(3,4,5-trifluorophenyl)-5,7-dihydro-4H-pyrazolo[3,4-c]pyridin-6-yl]-(6-fluoro-2,7-dimethyl-imidazo[1,2-a]pyridin-3-yl)methanone] here?
Answer: 0.0766 µM

Question: Which IC50 does the source give for Cc1c(C(=O)N2CCc3c(nn(C)c3-c3cc(F)c(F)c(F)c3)[C@@H]2C)cnn1C [Example 345, (1,5-Dimethylpyrazol-4-yl)-[(7S)-2,7-dimethyl-3-(3,4,5-trifluorophenyl)-5,7-dihydro-4H-pyrazolo[3,4-c]pyridin-6-yl]methanone] here?
Answer: 0.0528 µM

Question: How did the IC50 turn out when C[C@H]1c2nn(C)c(-c3cc(F)c(F)c(F)c3)c2CCN1C(=O)c1ccc2cncnc2c1 [Example 480, [(7S)-2,7-Dimethyl-3-(3,4,5-trifluorophenyl)-5,7-dihydro-4H-pyrazolo[3,4-c]pyridin-6-yl]-quinazolin-7-yl-methanone] was run?
Answer: 0.207 µM

Question: With Cc1nc2ncccn2c1C(=O)N1CCc2c(nn(C)c2-c2cc(F)c(F)c(F)c2)[C@@H]1C [Example 458, [(7S)-2,7-Dimethyl-3-(3,4,5-trifluorophenyl)-5,7-dihydro-4H-pyrazolo[3,4-c]pyridin-6-yl]-(2-methylimidazo[1,2-a]pyrimidin-3-yl)methanone] as the compound, how does the IC50 read?
Answer: 0.163 µM

Question: Which IC50 does the source give for C[C@H]1c2nn(C)c(-c3ccc4c(c3)OCO4)c2CCN1C(=O)c1ccc2ncccc2c1 [Example 540, [(7S)-3-(1,3-Benzodioxol-5-yl)-2,7-dimethyl-5,7-dihydro-4H-pyrazolo[3,4-c]pyridin-6-yl]-(6-quinolyl)methanone] here?
Answer: 0.133 µM

Same assay, conditions: 300 nM [Glycerol-1,3-3H]-oleyl glycerol, one hour incubation

Question: Which IC50 does the source give for C[C@H]1c2nn(C)c(-c3cccc(Cl)c3)c2CCN1C(=O)c1cnc2ccoc2c1 (single isomer, unassigned) [Example 128] here?
Answer: 0.0263 µM

Question: Which IC50 does the source give for COc1ccc(C(=O)N2CCc3c(nn(C)c3-c3cc(F)c(F)c(F)c3)[C@@H]2C)c(C)n1 [Example 306, [(7S)-2,7-Dimethyl-3-(3,4,5-trifluorophenyl)-5,7-dihydro-4H-pyrazolo[3,4-c]pyridin-6-yl]-(6-methoxy-2-methyl-3-pyridyl)methanone] here?
Answer: 0.189 µM

Question: How did the IC50 turn out when C[C@H]1c2nn(C)c(-c3cccc(Cl)c3)c2CCN1C(=O)c1ncn(-c2ccccc2)n1 [Example 117, (S)-(3-(3-Chlorophenyl)-2,7-dimethyl-2,4,5,7-tetrahydro-6H-pyrazolo[3,4-c]pyridin-6-yl)(1-phenyl-1H-1,2,4-triazol-3-yl)methanone] was run?
Answer: 0.0567 µM

Question: Cn1nc2c(c1-c1ccccc1)CCN(C(=O)c1cccc3ccnn13)C2 [Example 75, (2-Methyl-3-phenyl-2,4,5,7-tetrahydro-6H-pyrazolo[3,4-c]pyridin-6-yl)(pyrazolo[1,5-a]pyridin-7-yl)methanone] was tested. Which IC50 did it give?
Answer: 1.8 µM

Question: How did the IC50 turn out when Cn1nc2c(c1-c1ccccc1)CCN(C(=O)c1cccc3cccnc13)C2 [Example 93, (2-Methyl-3-phenyl-2,4,5,7-tetrahydro-6H-pyrazolo[3,4-c]pyridin-6-yl)(quinolin-8-yl)methanone] was run?
Answer: 0.126 µM

Question: For Cc1nc2cccc(Cl)n2c1C(=O)N1CCc2c(nn(C)c2-c2ccccc2)C1 [Example 82, (5-Chloro-2-methylimidazo[1,2-a]pyridin-3-yl)(2-methyl-3-phenyl-2,4,5,7-tetrahydro-6H-pyrazolo[3,4-c]pyridin-6-yl)methanone], which IC50 is on record?
Answer: 4.81 µM

Question: With C[C@H]1c2nn(C)c(-c3cc(F)cc(F)c3)c2CCN1C(=O)c1ccc2ncc(OCCF)cc2c1 [Example 166, (S)-(3-(3,5-Difluorophenyl)-2,7-dimethyl-2,4,5,7-tetrahydro-6H-pyrazolo[3,4-c]pyridin-6-yl)(3-(2-fluoroethoxy)quinolin-6-yl)methanone] as the compound, how does the IC50 read?
Answer: 0.0113 µM

Question: How did the IC50 turn out when [2H]C([2H])([2H])n1nc2c(c1-c1cc(F)cc(F)c1)CCN(C(=O)c1ccc3ncccc3c1)C2C (centres unmarked) [Example 157, (3-(3,5-Difluorophenyl)-7-methyl-2-(methyl-d3)-2,4,5,7-tetrahydro-6H-pyrazolo[3,4-c]pyridin-6-yl)(quinolin-6-yl)methanone] was run?
Answer: 0.0138 µM

Question: For Cn1nc2c(c1-c1ccccc1)CCN(C(=O)c1cccc3cc[nH]c13)C2 [Example 45, (1H-Indol-7-yl)(2-methyl-3-phenyl-2,4,5,7-tetrahydro-6H-pyrazolo[3,4-c]pyridin-6-yl)methanone], which IC50 is on record?
Answer: 1.46 µM

Question: Which IC50 does the source give for COc1cccc(C(=O)N2CCc3c(nn(C)c3-c3cc(F)c(F)c(F)c3)[C@@H]2C)c1 [Example 260, [(7S)-2,7-Dimethyl-3-(3,4,5-trifluorophenyl)-5,7-dihydro-4H-pyrazolo[3,4-c]pyridin-6-yl]-(3-methoxyphenyl)methanone] here?
Answer: 0.00725 µM

Question: Which IC50 does the source give for C[C@H]1c2nn(C)c(-c3cccc(Cl)c3)c2CCN1C(=O)c1ccc2[nH]c(=O)oc2c1 [Example 124, (S)-6-(3-(3-Chlorophenyl)-2,7-dimethyl-4,5,6,7-tetrahydro-2H-pyrazolo[3,4-c]pyridine-6-carbonyl)benzo[d]oxazol-2(3H)-one] here?
Answer: 0.0197 µM

Question: How did the IC50 turn out when Cc1ccc(-n2nccn2)c(C(=O)N2CCc3c(nn(C)c3-c3cc(F)c(F)c(F)c3)[C@@H]2C)c1 [Example 197, (S)-(2,7-Dimethyl-3-(3,4,5-trifluorophenyl)-2,4,5,7-tetrahydro-6H-pyrazolo[3,4-c]pyridin-6-yl)(5-methyl-2-(2H-1,2,3-triazol-2-yl)phenyl)methanone] was run?
Answer: 0.06 µM

Question: Which IC50 does the source give for Cn1nc2c(c1-c1ccccc1)CCN(C(=O)c1c[nH]c3cccc(Cl)c13)C2 [Example 49, (4-Chloro-1H-indol-3-yl)(2-methyl-3-phenyl-2,4,5,7-tetrahydro-6H-pyrazolo[3,4-c]pyridin-6-yl)methanone] here?
Answer: 0.461 µM

Question: Which IC50 does the source give for C[C@H]1c2nn(C)c(-c3cc(F)c(F)c(F)c3)c2CCN1C(=O)c1cnc2ccccn12 [Example 213, (S)-(2,7-Dimethyl-3-(3,4,5-trifluorophenyl)-2,4,5,7-tetrahydro-6H-pyrazolo[3,4-c]pyridin-6-yl)(imidazo[1,2-a]pyridin-3-yl)methanone] here?
Answer: 0.0256 µM

Question: With COc1ccccc1C(=O)N1CCc2c(nn(C)c2-c2cc(F)c(F)c(F)c2)[C@@H]1C [Example 259, [(7S)-2,7-Dimethyl-3-(3,4,5-trifluorophenyl)-5,7-dihydro-4H-pyrazolo[3,4-c]pyridin-6-yl]-(2-methoxyphenyl)methanone] as the compound, how does the IC50 read?
Answer: 0.0126 µM
